Results: patent US20260115213A1 (priority 2021, published 2026)

How the values were obtained:
5′-UTR of beta-globin = conditions: HepG2 cells, 5, 10, 50 and 100 nM, 48 h, normalized to Renilla and DMSO control
[1] = molecular target: T1, eIF4A1(19-406)-(AG)5-AMPPNP complex (purified recombinant human eIF4A) (Homo sapiens, UniProt P60842); assay: Thermal shift assay, melting temperature of eIF4A1(19-406)-(AG)5-AMPPNP-rocaglate complexes; type: binding; conditions: 5 μM eIF4A, 50 μM (AG)5 RNA, 1 mM AMP-PNP, 100 μM compound; DMSO negative control Tm=48.80
T1 construct: eIF4A1(19-406)=amino acid residues 19-406 of eIF4A1; made in house
T1 sequence (P60842 19-406, one chain of several): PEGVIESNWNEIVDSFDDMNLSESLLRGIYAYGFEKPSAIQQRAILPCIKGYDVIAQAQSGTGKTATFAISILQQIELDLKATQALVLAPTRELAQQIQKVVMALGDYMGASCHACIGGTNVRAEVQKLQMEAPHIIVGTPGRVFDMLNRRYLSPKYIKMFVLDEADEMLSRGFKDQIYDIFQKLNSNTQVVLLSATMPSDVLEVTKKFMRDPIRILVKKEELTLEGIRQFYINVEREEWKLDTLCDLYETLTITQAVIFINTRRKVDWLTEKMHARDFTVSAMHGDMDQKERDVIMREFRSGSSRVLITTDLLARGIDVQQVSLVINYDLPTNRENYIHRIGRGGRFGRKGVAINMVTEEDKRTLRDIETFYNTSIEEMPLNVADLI
Experimental: A thermal shift assay was performed to study the complexing of the synthetic rocaglates with the eIF4A complex. For the thermal shift assay a final protein concentration of 5 μM purified recombinant human eIF4A (purification according to Iwasaki, et al., 2019) was used. In a reaction volume of 20 μL a 10-fold excess of polypurine RNA ((AG)5) (biomers) (final concentration: 50 μM), 1 mM of the ATP analogue AMP-PNP (ROCHE™), 100 μM of the synthetic rocaglate compounds or DMSO as well as 0.3 μL SYPRO® Orange Protein Gel Stain (SIGMA-ALDRICH™) were mixed with the protein. The measurement was performed in a MICROAMP® Fast 96-Well Reaction Plate (0.1 mL, APPLIED BIOSYSTEMS™) using the QUANTSTUDIO3™ Real-Time PCR System (APPLIED BIOSYSTEMS™). The melt curve starting temperature was set to 10° C. in increments of 0.05° C./s ending at 95° C. After measurement, the data was analyzed using the PROTEIN THERMAL SHIFT™ Software (APPLIED BIOSYSTEMS™).

5′-UTR of (AG)15 = conditions: HepG2 cells, 5, 10, 50 and 100 nM, 48 h, normalized to Renilla and DMSO control
[2] = system: RNA viruses representing different virus families (EBOV, CoV, ZIKV, CHIKV, HEV); conditions: non-cytotoxic concentrations; cited from earlier work

Compound	melting temperature (Tm) of eIF4A1(19-406)-(AG)5-AMPPNP-Rocaglate complex [1]	other results
CONC(=O)[C@H]1[C@@H](O)[C@@]2(O)c3c(OC)cc(OC)cc3O[C@@]2(c2ccc(O)cc2)[C@@H]1c1ccccc1 [Compound 1, (1R,2R,3S,3aR,8bS)-1,8b-dihydroxy-3a-(4-hydroxyphenyl)-N,6,8-trimethoxy-3-phenyl-2,3-dihydro-1Hcyclopenta[b]benzofuran-2-carboxamide]	51.49	reporter activity, β-globin 5′-UTR (eIF4A-independent effect) (5′-UTR of beta-globin): nonspecific effects
CONC(=O)[C@H]1[C@@H](O)[C@@]2(O)c3c(OC)cc(O)cc3O[C@@]2(c2ccc(OC)cc2)[C@@H]1c1ccccc1 [Compound 6, (1R,2R,3S,3aR,8bS)-1,6,8b-trihydroxy-N,8-dimethoxy-3a-(4-methoxyphenyl)-3-phenyl-2,3-dihydro-1Hcyclopenta[b]benzofuran-2-carboxamide]	51.29	
COc1cc(OC)c2c(c1)O[C@@]1(c3ccc(O)cc3)[C@H](c3ccccc3)[C@@H](C(N)=O)[C@@H](O)[C@@]21O [Compound 9, (1R,2R,3S,3aR,8bS)-1,8b-dihydroxy-3a-(4-hydroxyphenyl)-6,8-dimethoxy-3-phenyl-2,3-dihydro-1H-cyclopenta[b]benzofuran-2-carboxamide]	55.44	reporter activity, (AG)15 5′-UTR (eIF4A-dependency) (5′-UTR of (AG)15): only reduced reporter activity with polyAG sequences
COC(=O)[C@H]1[C@@H](O)[C@@]2(O)c3c(OC)cc(O[C@@H]4O[C@@H]([C@H](O)CO)CO[C@H]4OC)cc3O[C@@]2(c2ccc(OC)cc2)[C@@H]1c1ccccc1 [Silvestrol, methyl (1R,2R,3S,3aR,8bS)-6-[[(2S,3R,6R)-6-[(1R)-1,2-dihydroxyethyl]-3-methoxy-1,4-dioxan-2-yl]oxy]-1,8b-dihydroxy-8-methoxy-3a-(4-methoxyphenyl)-3-phenyl-2,3-dihydro-1H-cyclopenta[b][1]benzofuran-2-carboxylate]		concentration range of broad-spectrum antiviral activity [2]: low nanomolar range
CONC(=O)[C@@H]1[C@H](O)[C@]2(O)c3c(OC)cc(O)cc3O[C@]2(c2ccc(OC)cc2)[C@H]1c1ccccc1 [Compound 7, (1S,2S,3R,3aS,8bR)-1,6,8b-trihydroxy-N,8-dimethoxy-3a-(4-methoxyphenyl)-3-phenyl-2,3,3a,8b-tetrahydro-1H-cyclopenta[b]benzofuran-2-carboxamide]	49.07	
COc1cc(OC)c2c(c1)O[C@]1(c3ccc(O)cc3)[C@@H](c3ccccc3)[C@H](C(N)=O)[C@H](O)[C@]21O [Compound 8, (1S,2S,3R,3aS,8bR)-1,8b-dihydroxy-3a-(4-hydroxyphenyl)-6,8-dimethoxy-3-phenyl-2,3-dihydro-1H-cyclopenta[b]benzofuran-2-carboxamide]	51.07	
